Assay results published in patent US20120122860A1, “SOLID FORMS OF SULFONAMIDES AND AMINO ACIDS” (Plexxikon, Inc., priority 2009, published 2012).

What was measured:
B-Raf = B-Raf (Homo sapiens, UniProt P15056); test: Kinase activity assay, B-Raf; format: biochemical; conditions: read-out: activity toward kinase B-Raf, IC50
B-Raf V600E = B-Raf V600E (Homo sapiens, UniProt P15056, V600E); test: Kinase activity assay, B-Raf V600E; format: biochemical; conditions: read-out: activity toward kinase B-Raf V600E, IC50
A-Raf = molecular target: T1, A-Raf (Homo sapiens, UniProt P10398); test: Kinase activity assay, A-Raf
T1 sequence (P10398 1-606): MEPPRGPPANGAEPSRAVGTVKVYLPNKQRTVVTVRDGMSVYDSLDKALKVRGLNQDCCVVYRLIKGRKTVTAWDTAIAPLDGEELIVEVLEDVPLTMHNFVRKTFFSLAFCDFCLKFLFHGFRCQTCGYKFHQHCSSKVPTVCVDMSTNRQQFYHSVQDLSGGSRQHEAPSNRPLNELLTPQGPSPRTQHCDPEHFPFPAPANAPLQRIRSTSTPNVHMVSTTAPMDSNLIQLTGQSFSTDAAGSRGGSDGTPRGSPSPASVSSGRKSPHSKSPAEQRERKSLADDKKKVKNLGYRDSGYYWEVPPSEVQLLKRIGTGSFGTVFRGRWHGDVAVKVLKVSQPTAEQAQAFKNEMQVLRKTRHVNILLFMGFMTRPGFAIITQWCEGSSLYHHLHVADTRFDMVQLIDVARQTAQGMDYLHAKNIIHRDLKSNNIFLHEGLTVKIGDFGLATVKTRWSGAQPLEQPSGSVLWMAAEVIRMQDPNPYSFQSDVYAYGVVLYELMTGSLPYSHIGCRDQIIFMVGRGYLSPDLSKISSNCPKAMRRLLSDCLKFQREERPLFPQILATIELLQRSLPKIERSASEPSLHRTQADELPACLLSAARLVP

C-Raf = C-Raf (Homo sapiens, UniProt P04049); test: Kinase activity assay, C-Raf
Kdr = Kdr (Homo sapiens, UniProt P35968); test: Kinase activity assay, Kdr
MAP4K4 = MAP4K4 (Homo sapiens, UniProt O95819); test: Kinase activity assay, MAP4K4
Kit = Kit (Homo sapiens, UniProt P10721); test: Kinase activity assay, Kit
Src = Src (Homo sapiens, UniProt P12931); test: Kinase activity assay, Src
Fms = Fms (Homo sapiens, UniProt P07333); test: Kinase activity assay, Fms

Measured: IC50

C-Raf, sequence (P04049 whole entry): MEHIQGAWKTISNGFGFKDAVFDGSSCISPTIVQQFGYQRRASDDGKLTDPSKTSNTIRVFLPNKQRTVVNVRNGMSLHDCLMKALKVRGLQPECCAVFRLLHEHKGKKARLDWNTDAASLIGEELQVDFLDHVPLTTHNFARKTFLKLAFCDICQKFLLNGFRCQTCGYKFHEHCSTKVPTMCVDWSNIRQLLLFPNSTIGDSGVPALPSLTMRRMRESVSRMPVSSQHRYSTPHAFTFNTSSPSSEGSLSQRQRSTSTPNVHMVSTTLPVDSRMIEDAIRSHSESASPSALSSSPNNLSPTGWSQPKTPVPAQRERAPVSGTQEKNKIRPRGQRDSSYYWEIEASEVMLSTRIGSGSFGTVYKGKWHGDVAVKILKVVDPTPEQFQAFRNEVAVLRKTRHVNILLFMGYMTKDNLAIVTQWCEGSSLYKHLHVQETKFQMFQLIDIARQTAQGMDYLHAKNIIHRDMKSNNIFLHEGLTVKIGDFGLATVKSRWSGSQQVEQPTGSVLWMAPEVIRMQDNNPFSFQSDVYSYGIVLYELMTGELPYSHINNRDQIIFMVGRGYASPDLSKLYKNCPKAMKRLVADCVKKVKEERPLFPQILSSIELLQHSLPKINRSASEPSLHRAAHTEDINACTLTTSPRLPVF
B-Raf, sequence (P15056 whole entry): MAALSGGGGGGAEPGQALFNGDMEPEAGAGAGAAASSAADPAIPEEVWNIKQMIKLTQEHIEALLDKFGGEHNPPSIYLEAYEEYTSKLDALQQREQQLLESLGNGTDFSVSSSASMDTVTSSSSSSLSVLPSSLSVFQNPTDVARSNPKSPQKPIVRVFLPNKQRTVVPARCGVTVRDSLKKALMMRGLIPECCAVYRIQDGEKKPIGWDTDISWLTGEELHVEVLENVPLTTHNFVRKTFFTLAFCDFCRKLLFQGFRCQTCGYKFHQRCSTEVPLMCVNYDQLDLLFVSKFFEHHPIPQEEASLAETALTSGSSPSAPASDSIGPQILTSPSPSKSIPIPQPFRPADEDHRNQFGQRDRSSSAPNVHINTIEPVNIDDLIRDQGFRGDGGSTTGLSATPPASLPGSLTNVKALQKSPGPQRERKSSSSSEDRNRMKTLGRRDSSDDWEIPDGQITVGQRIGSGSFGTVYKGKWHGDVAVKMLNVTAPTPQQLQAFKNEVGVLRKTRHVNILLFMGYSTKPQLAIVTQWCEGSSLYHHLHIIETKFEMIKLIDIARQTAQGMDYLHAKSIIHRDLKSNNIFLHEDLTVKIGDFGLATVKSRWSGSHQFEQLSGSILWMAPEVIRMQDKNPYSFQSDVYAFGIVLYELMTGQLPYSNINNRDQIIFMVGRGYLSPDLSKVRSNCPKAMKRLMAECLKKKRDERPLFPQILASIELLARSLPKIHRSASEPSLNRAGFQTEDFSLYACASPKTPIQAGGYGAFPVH
B-Raf V600E, sequence (P15056 whole entry V600E): as the sequence (P15056 whole entry) above, with V600E counted along it
Kit, sequence (P10721 26-976): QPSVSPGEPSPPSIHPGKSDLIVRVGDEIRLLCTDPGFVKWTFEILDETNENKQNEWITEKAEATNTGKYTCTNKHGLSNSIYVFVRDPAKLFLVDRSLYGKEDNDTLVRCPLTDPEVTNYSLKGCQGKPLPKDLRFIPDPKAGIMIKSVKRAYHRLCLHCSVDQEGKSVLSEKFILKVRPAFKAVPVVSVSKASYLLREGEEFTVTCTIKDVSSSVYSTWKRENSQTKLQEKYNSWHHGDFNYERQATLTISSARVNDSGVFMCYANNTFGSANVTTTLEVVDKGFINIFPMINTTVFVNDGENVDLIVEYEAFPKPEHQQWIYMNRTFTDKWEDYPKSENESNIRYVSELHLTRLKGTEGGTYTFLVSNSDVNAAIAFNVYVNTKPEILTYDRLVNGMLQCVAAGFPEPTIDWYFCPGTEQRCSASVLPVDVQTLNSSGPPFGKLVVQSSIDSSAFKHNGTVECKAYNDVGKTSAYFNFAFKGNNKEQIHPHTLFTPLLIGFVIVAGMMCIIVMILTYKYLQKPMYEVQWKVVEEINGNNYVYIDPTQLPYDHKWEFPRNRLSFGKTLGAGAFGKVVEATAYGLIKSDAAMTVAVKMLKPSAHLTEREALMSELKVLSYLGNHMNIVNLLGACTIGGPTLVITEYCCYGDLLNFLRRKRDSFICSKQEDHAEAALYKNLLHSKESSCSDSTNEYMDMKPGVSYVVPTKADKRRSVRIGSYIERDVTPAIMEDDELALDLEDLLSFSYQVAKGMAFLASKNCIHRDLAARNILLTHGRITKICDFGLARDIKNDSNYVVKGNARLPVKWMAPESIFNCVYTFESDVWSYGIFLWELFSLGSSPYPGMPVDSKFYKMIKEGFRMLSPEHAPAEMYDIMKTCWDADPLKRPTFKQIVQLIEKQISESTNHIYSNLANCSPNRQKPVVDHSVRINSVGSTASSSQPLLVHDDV
MAP4K4, sequence (O95819 whole entry): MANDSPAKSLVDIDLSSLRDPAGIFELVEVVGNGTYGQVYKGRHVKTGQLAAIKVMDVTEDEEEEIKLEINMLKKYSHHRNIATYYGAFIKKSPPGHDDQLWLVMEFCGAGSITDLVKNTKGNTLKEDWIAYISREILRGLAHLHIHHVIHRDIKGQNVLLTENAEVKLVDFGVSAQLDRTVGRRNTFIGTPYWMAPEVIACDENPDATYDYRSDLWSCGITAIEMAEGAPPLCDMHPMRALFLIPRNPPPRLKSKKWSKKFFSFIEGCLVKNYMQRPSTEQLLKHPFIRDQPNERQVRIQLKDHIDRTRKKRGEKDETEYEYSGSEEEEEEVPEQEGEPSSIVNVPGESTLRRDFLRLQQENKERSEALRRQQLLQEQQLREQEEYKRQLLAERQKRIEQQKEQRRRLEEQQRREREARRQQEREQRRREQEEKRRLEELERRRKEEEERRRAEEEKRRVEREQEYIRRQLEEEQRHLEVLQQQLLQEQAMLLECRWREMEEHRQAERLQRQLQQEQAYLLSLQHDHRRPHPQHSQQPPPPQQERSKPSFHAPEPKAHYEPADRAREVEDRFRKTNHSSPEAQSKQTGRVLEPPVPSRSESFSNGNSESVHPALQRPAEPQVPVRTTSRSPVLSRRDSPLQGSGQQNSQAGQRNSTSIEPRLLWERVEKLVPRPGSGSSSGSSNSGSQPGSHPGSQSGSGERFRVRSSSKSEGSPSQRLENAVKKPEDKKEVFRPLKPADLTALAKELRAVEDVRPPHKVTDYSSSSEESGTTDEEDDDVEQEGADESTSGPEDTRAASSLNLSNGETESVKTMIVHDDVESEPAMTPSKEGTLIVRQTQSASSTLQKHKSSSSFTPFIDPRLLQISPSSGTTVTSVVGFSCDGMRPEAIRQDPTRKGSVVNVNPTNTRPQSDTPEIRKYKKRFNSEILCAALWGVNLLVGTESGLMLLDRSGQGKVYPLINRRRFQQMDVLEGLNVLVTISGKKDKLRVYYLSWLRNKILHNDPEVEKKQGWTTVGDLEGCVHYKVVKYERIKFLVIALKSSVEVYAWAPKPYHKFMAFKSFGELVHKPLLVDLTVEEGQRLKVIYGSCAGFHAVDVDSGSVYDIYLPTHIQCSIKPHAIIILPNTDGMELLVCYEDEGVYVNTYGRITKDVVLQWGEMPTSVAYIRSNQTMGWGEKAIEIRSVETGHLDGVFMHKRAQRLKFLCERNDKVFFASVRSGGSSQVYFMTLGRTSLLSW
Fms, sequence (P07333 20-972): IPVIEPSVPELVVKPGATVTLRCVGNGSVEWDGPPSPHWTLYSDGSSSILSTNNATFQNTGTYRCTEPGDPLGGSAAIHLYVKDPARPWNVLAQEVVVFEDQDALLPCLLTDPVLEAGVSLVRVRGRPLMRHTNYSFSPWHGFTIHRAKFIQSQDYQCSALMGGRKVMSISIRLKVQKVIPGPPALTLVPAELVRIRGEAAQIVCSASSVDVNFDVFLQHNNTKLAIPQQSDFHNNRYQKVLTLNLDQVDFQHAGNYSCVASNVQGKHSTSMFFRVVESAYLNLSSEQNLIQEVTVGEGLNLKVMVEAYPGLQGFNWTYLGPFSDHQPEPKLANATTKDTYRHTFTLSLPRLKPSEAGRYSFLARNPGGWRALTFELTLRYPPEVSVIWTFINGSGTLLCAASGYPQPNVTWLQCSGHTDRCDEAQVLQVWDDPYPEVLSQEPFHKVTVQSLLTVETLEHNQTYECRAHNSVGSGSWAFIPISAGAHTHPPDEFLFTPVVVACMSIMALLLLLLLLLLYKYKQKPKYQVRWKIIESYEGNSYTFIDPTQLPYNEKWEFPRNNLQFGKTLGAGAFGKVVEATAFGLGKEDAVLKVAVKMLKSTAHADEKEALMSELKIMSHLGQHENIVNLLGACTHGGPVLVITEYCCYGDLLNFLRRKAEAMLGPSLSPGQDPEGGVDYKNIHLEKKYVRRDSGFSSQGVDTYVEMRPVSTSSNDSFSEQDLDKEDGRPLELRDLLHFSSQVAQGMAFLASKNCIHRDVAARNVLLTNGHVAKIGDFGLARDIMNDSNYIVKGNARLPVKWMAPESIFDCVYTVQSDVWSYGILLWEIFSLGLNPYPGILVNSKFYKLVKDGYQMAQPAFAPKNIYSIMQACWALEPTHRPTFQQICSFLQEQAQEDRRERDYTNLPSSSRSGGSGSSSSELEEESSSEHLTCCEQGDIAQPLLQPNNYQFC

N#Cc1ccnc2[nH]cc(C(=O)c3c(F)ccc(NS(=O)(=O)c4cccnc4)c3F)c12 [P-2077, Pyridine-3-sulfonic acid [3-(4-cyano-1H-pyrrolo[2,3-b]pyridine-3-carbonyl)-2,4-difluoro-phenyl]-amide]
≤ 10 µM: B-Raf | B-Raf V600E | A-Raf | C-Raf

O=C(c1cc(NS(=O)(=O)c2ccc(C(F)(F)F)cc2)ccc1F)c1c[nH]c2ncccc12 [P-2119, N-[4-Fluoro-3-(1H-pyrrolo[2,3-b]pyridine-3-carbonyl)-phenyl]-4-trifluoromethyl-benzenesulfonamide]
≤ 10 µM: B-Raf | A-Raf | C-Raf

CCCS(=O)(=O)Nc1ccc(F)c(C(=O)c2c[nH]c3nccc(Cl)c23)c1F [P-2208, Propane-1-sulfonic acid [3-(4-chloro-1H-pyrrolo[2,3-b]pyridine-3-carbonyl)-2,4-difluoro-phenyl]-amide]
≤ 10 µM: B-Raf | B-Raf V600E | A-Raf | C-Raf | Kdr

CCCS(=O)(=O)Nc1ccc(F)c(C(=O)c2c[nH]c3ncc(-c4cccc(S(C)(=O)=O)c4)cc23)c1F [P-2228, Propane-1-sulfonic acid {2,4-difluoro-3-[5-(3-methanesulfonyl-phenyl)-1H-pyrrolo[2,3-b]pyridine-3-carbonyl]-phenyl}-amide]
not listed: A-Raf
≤ 10 µM: all other assays above

CCCS(=O)(=O)Nc1ccc(F)c(C(=O)c2c[nH]c3ncc(CCC(=O)NOC)cc23)c1F [P-2243, 3-{3-[2,6-Difluoro-3-(propane-1-sulfonylamino)-benzoyl]-1H-pyrrolo[2,3-b]pyridin-5-yl}-N-methoxy-propionamide]
≤ 10 µM: B-Raf | B-Raf V600E | A-Raf | C-Raf | Kdr

CCCS(=O)(=O)Nc1ccc(F)c(C(=O)c2c[nH]c3ncc(CN(CC)CC)cc23)c1F [P-2258, Propane-1-sulfonic acid [3-(5-diethylaminomethyl-1H-pyrrolo[2,3-b]pyridine-3-carbonyl)-2,4-difluoro-phenyl]-amide]
≤ 10 µM: B-Raf | B-Raf V600E | A-Raf | C-Raf

CCCS(=O)(=O)Nc1ccc(F)c(C(=O)c2c[nH]c3ncc(CN4CCCC4)cc23)c1F [P-2259, Propane-1-sulfonic acid [2,4-difluoro-3-(5-pyrrolidin-1-ylmethyl-1H-pyrrolo[2,3-b]pyridine-3-carbonyl)-phenyl]-amide]
≤ 10 µM: B-Raf | B-Raf V600E | A-Raf | C-Raf

CCS(=O)(=O)Nc1ccc(F)c(C(=O)c2c[nH]c3nccc(C#N)c23)c1F [P-2283, Ethanesulfonic acid [3-(4-cyano-1H-pyrrolo[2,3-b]pyridine-3-carbonyl)-2,4-difluoro-phenyl]-amide]
≤ 10 µM: B-Raf | B-Raf V600E | A-Raf | C-Raf

CC(C)S(=O)(=O)Nc1ccc(F)c(C(=O)c2c[nH]c3nccc(C#N)c23)c1F [P-2285, Propane-2-sulfonic acid [3-(4-cyano-1H-pyrrolo[2,3-b]pyridine-3-carbonyl)-2,4-difluoro-phenyl]-amide]
≤ 10 µM: B-Raf | B-Raf V600E | A-Raf | C-Raf

O=C(c1c(F)ccc(NS(=O)(=O)CCC(F)(F)F)c1F)c1c[nH]c2ncc(Cl)cc12 [P-2324, 3,3,3-Trifluoro-propane-1-sulfonic acid [3-(5-chloro-1H-pyrrolo[2,3-b]pyridine-3-carbonyl)-2,4-difluoro-phenyl]-amide]
not listed: A-Raf
≤ 10 µM: all other assays above

N#Cc1cnc2[nH]cc(C(=O)c3c(F)ccc(NS(=O)(=O)CCC(F)(F)F)c3F)c2c1 [P-2331, 3,3,3-Trifluoro-propane-1-sulfonic acid [3-(5-cyano-1H-pyrrolo[2,3-b]pyridine-3-carbonyl)-2,4-difluoro-phenyl]-amide]
not listed: A-Raf
≤ 10 µM: all other assays above

CCN(CC)S(=O)(=O)Nc1ccc(F)c(C(=O)c2c[nH]c3ncc(C#N)cc23)c1F [P-2385, N,N-diethylamino-sulfonic acid [3-(5-cyano-1H-pyrrolo[2,3-b]pyridine-3-carbonyl)-2,4-difluoro-phenyl]-amide]
≤ 10 µM: B-Raf V600E | A-Raf | Kdr

CCN(CC)S(=O)(=O)Nc1ccc(F)c(C(=O)c2c[nH]c3ncc(C)cc23)c1F [P-2386, N,N-diethylamino-sulfonic acid [2,4-difluoro-3-(5-methyl-1H-pyrrolo[2,3-b]pyridine-3-carbonyl)-phenyl]-amide]
≤ 10 µM: B-Raf V600E | A-Raf | Kdr

CCN(CC)S(=O)(=O)Nc1ccc(F)c(C(=O)c2c[nH]c3nccc(Cl)c23)c1F [P-2387, N,N-diethylamino-sulfonic acid [3-(4-chloro-1H-pyrrolo[2,3-b]pyridine-3-carbonyl)-2,4-difluoro-phenyl]-amide]
≤ 10 µM: B-Raf V600E | A-Raf | Kdr

CCN(CC)S(=O)(=O)Nc1ccc(F)c(C(=O)c2c[nH]c3nccc(C#N)c23)c1F [P-2388, N,N-diethylamino-sulfonic acid [3-(4-cyano-1H-pyrrolo[2,3-b]pyridine-3-carbonyl)-2,4-difluoro-phenyl]-amide]
≤ 10 µM: B-Raf V600E | A-Raf

N#Cc1ccnc2[nH]cc(C(=O)c3c(F)ccc(NS(=O)(=O)N4CCOCC4)c3F)c12 [P-2395, Morpholine-4-sulfonic acid [3-(4-cyano-1H-pyrrolo[2,3-b]pyridine-3-carbonyl)-2,4-difluoro-phenyl]-amide]
≤ 10 µM: B-Raf | B-Raf V600E | A-Raf | C-Raf
